{"source": "patent US10213451B2", "about": "“Methods and compounds for modulating the secretion or expression of adhesion proteins or angiopoietins of cells” (PACIFIC ARROW LIMITED, priority 2004, dated 2019)", "key": {"60 cancer cell lines": {"tested_on": "60 cancer cell lines", "assay": "Test with 60 cancer cell lines", "type": "cell-based", "details": "most of 60 cancer cell lines tested", "method": "To investigate the anti-tumor activity of Xanthoceras sorbifolia, we employed cancer cell lines derived from different human organs and tested the effect on growth activity. […] Intl App'l No. PCT/US04/33359 and U.S. Ser. No. 10/906,303. The active compound was then purified and named Xanifolia-Y. Its chemical structure was determined by 2D NMR and MS analysis. Xanifolia-Y is a novel triterpenoid saponin with a diangeloyl group attached at one end and carbohydrates or sugar moieties at another end of the triterpene structure. In an embodiment, the diangeloyl attached at C21, C22 positions and carbohydrates or sugar moieties at C3 position of a triterpene structure. The diangeloyl group is important for its activity. The purified compound has been tested with 60 cancer cell lines."}, "[1]": {"tested_on": "(bladder)TB9 cells / HTB-9", "assay": "MTT assay bladder cells", "type": "cell-based, human", "method": "(§1) Cells. Human cancer cell lines were obtained from American Type Culture Collection: HTB-9 (bladder), HeLa-S3 (cervix), DU145 (prostate), H460 (lung), MCF-7 (breast), K562 (leukocytes), HCT116 (colon), HepG2 (liver), U2OS (bone), T98G (brain), SK-MEL-5 (Skin) and OVCAR-3 (ovary). The cells were grown in following culture media: HeLa-53, DU145, MCF-7, Hep-G2 and T98G are in MEN (Earle's salts); HTB-9, H460, K562 and OVCAR-3 in RPMI-1640; HCT-116 and U2OS in McCoy-5A. They are supplemented with 10% fetal calf serum, glutamine and antibiotics, and incubated in an incubator with 5% CO2 humidified at 37° C.\nMTT Assay. The procedure for MTT assay followed the method described by Carmichael et al. (1987) with modifications. The cells were seeded into a 96-well plate at concentration of 10,000/well for HTB-9, HeLa, H460, HCT116, T98G and OVCAR-3), 15,000/well for DU145, MCF-7, HepG2 and U2OS), and 40,000/well for K562 for 24 hours before drug-treatment. The cells were then exposed to the drugs for 48 hours (72 hours for HepG2 and U2OS, and 96 hours for MCF-7). After the drug-treatment, MTT (0.5 mg/mL) was added to cultures and incubated for an hour. The formazan (product of the reduction of tetrazolium by viable cells) formed and was dissolved with DMSO and the O.D. at 490 nm, and was measured by an ELISA reader. The MTT level of the cells before drug-treatment was also measured (T0). The % cell-growth (% G) is calculated as: % G=(TD−T0/TC−T0)×100(1), where TC or TD represents O.D. readings of control or drug-treated cells. When T0>TD, then the cytotoxicity (LC) expressed as % of the control is calculated as: % LC=(TD−T0/T0)×100(2)."}, "HeLa cells": {"tested_on": "HeLa cells", "assay": "MTT assay HeLa", "type": "cell-based", "details": "Homo sapiens", "method": "as §1\nMTT Assay. The procedure for MTT assay followed the method described by Carmichael et al. (1987) with modifications. […] The formazan (product of the reduction of tetrazolium by viable cells) formed and was dissolved with DMSO and the O.D. at 490 nm, and was measured by an ELISA reader. The MTT level of the cells before drug-treatment was also measured (T0). The % cell-growth (% G) is calculated as: % G=(TD−T0/TC−T0)×100(1), where TC or TD represents O.D. readings of control or drug-treated cells. When T0>TD, then the cytotoxicity (LC) expressed as % of the control is calculated as: % LC=(TD−T0/T0)×100(2)."}, "[2]": {"tested_on": "Fibronectin secretion from Hey8A (human ovarian carcinoma cells)", "assay": "Fibronectin secretion (Western blot), Hey8A cells", "type": "cell-based", "details": "10 ug/ml, 24 hours", "method": "Inhibition of Fibronectin secretion is physiological and the determination of its quantity is based on the following criteria: • 1. Fibronectin is secreted from viable cells. Only cell with over 85% viable cells after drug-treatment are employed in these experiments. The viable cells were determined by MTT assay. • 2. For comparison, the immuno-band intensity from each samples are normalized with cell mass. The cell mass was determined by the MTT assay and is assigned as a MTT unit for each cell sample.\nCells: Hey8A (human ovarian carcinoma cells) were grew in RPMI 1640 medium to 90% confluent before drug-treatment. Drug-treatment: Cells cultures were replaced with fresh RPMI medium containing either DMSO (as control) [D1]; or Xanifolia-Y (10, 15, or 20 ug/ml) [Y1, Y2 and Y3]. Aliquot of medium was removed as 0 hours sample and no FN was detected at this time. After 24 hours, aliquot of culture medium was taken out for Fibronectin determination (Western blot method). Cell viability at 24 hours was determined by MTT assay. Cultures were replaced with RPMI medium (5 ml) with MTT and incubated for an hour. The formation of formazan was dissolved in DMSO and OD at 570 nm was measured.\nWestern Blot: Spent culture medium (0.6 ml) was mixed with SDS sample buffer (0.2 ml), boiled for 3 minutes before loading to SDS gel. Samples (60 ul/lane) were applied to a 6% SDS gel and electrophoresis was conducted with 100 volts for 2 hours. Protein was transferred to a nitrocellulose paper electrophoretically (30 min at 100 volts). The Western blot was incubated with the first antibody (mouse anti-FN, specific to human FN, SIGMA F0916) and second antibody (Anti-mouse IgG AP conjugated, Promega S3721). The immunobands were developed with BCIP/NBT color development system (Promega S3771)."}, "[3]": {"tested_on": "Angiopoietin 2 (Ang2) in ES2 cells", "assay": "Angiopoietin-2 cellular content (Western blot)", "type": "cell-based, human", "details": "low concentration (5, 10 ug/ml), 24 hours", "method": "Methods: ES2 (human ovarian carcinoma cells) were grew in RPMI 1640 medium. 4.5 million cells were seeded in a T75 flask and grown for 24 hours before drug-treatment.\nDrug-treatment: Cells cultures were treated with 5, 10 and 15 ug/ml (final concentration) of Xanifolia-Y3 [Y3-5, Y3-10, Y3-15]. or DMSO control [D-10]. After 24 hours, cells were suspended in 1 ml of SDS sample buffer (cell-extract). Samples (80 ul/lane) were applied to 10% SDS gel and electrophoresis was conducted with 100 volts for 2 hours. Protein was transferred to a nitrocellulose membrane electrophoretically. The nitrocellulose blot was blocked with 5% non-fat dry milk in PBS. The blot was then incubated with the first antibodies (goat anti-Ang2, SIGMA A0851) and second antibody (donkey anti-goat AP conjugated, Promega V115A). The immuno-bands were developed with BCIP/NBT color development system (Promega S3771).\nDrug-treatment: Cells cultures were treated with 5, 10 and 15 ug/ml (final concentration) of Xanifolia-Y3 [Y3-5, Y3-10, Y3-15]. or DMSO control [D-10]. After 24 hours, cells were suspended in 1 ml of SDS sample buffer (cell-extract). Samples (80 ul/lane) were applied to a 10% SDS gel and electrophoresis was conducted with 100 volts for 2 hours. Protein was transferred to a nitrocellulose membrane electrophoretically. The nitrocellulose blot was blocked with 5% non-fat dry milk in PBS. […]"}, "OVCAR3 cells": {"tested_on": "OVCAR3 cells", "assay": "Apoptosis by flow cytometry of GFP-Annexin-V and propidium iodide", "type": "cell-based, human", "details": "24 h after exposure", "method": "Experiment of apoptosis of OVCAR3 cells after treatment with Xanifolia-Y was assessed with flow cytometry of GFP-Annexin-V and propidium iodide."}}}
{"molecule": "C/C=C(/C)C(=O)O[C@H]1[C@H](OC(=O)/C(C)=C\\C)[C@@]2(CO)C(CC1(C)C)C1=CCC3[C@@]4(C)CC[C@H](O[C@@H]5OC(C(=O)O)[C@@H](O)C(O[C@@H]6O[C@@H](CO)C(O)C6O)C5O[C@@H]5OC(CO)[C@H](O)C(O)C5O)C(C)(C)C4CC[C@@]3(C)[C@]1(C)[C@@H](O)[C@H]2O", "note": "(stereo partly drawn) [Xanifolia-Y, 3-O-[β-D-galactopyranosyl (1→2)]-α-L-arabinofuranosy (1→3)-β-D-glucuronopyranosyl-21,22-O-diangeloyl-3β, 15α, 16α, 21β, 22α, 28-hexahydroxyolean-12-ene]", "values": [{"measurement": "GI50", "setting": "60 cancer cell lines", "result": "100 to 1000", "unit": "nM"}, {"measurement": "growth of cells compared to the DMSO control (MTT)", "setting": "[1]; HTB-9, 10 ug/ml", "result": "77%-91%"}, {"measurement": "IC50", "setting": "[1]; Homo sapiens, (bladder)TB9 cells, read-out: IC50", "result": 5, "unit": "µg/mL"}, {"measurement": "IC50", "setting": "HeLa cells", "result": 20, "unit": "µg/mL"}, {"measurement": "Fibronectin secreted as compared with the DMSO control", "setting": "[2]", "result": 31, "unit": "%"}, {"measurement": "average band intensity after corrected with the MTT unit", "setting": "[2]", "result": 366}, {"measurement": "inhibition at 10 µg/mL", "setting": "[2]; Homo sapiens, Ovarian carcinoma cell", "result": 69, "unit": "%"}, {"measurement": "Angiopoietin-2 immuno-band in cell extract", "setting": "[3]", "result": "No detectable or minimal immuno-band"}, {"measurement": "form of cell death induced", "setting": "OVCAR3 cells", "result": "apoptosis is a major form of cell death"}]}
